# Active and inactive are the calls of the source. The calls are words filed in the database; no cut-off is given here.
# Key:
# Candida metapsilosis [1] = experiment: Antifungal activity against Candida metapsilosis clinical isolate bloodstream form assessed as time required for 99% reduction in fungal growth at 1 mg/L by time-kill assay; format: functional
# Candida orthopsilosis [2] = experiment: Antifungal activity against Candida orthopsilosis clinical isolate bloodstream form assessed as time required for 99% reduction in fungal growth at 32 mg/L by time-kill assay; format: functional
# Candida orthopsilosis [3] = experiment: Antifungal activity against Candida orthopsilosis clinical isolate bloodstream form assessed as time required for 90% reduction in fungal growth at 16 mg/L by time-kill assay; format: functional
# Candida orthopsilosis [4] = experiment: Antifungal activity against Candida orthopsilosis clinical isolate bloodstream form assessed as time required for 50% reduction in fungal growth at 1 mg/L by time-kill assay; format: functional
# Candida orthopsilosis [5] = experiment: Antifungal activity against Candida orthopsilosis clinical isolate bloodstream form assessed as time required for 50% reduction in fungal growth at 32 mg/L by time-kill assay; format: functional
# Candida parapsilosis [6] = experiment: Antifungal activity against Candida parapsilosis clinical isolate bloodstream form assessed as induction of fungal killing rate at 0.03 to 32 mg/L measured at 6 hrs by time-kill assay; format: functional, organism-based
# Candida parapsilosis [7] = experiment: Antifungal activity against Candida parapsilosis clinical isolate bloodstream form assessed as time required for 50% reduction in fungal growth at 16 mg/L by time-kill assay; format: functional
# Candida metapsilosis [8] = experiment: Antifungal activity against Candida metapsilosis clinical isolate bloodstream form assessed as time required for 50% reduction in fungal growth at 32 mg/L by time-kill assay; format: functional
# Candida metapsilosis [9] = experiment: Antifungal activity against Candida metapsilosis clinical isolate bloodstream form assessed as time required for 99% reduction in fungal growth at 4 mg/L by time-kill assay; format: functional
# Candida metapsilosis [10] = experiment: Antifungal activity against Candida metapsilosis clinical isolate bloodstream form assessed as time required for 99.9% reduction in fungal growth at 16 mg/L by time-kill assay; format: functional
# Candida metapsilosis [11] = experiment: Antifungal activity against Candida metapsilosis clinical isolate bloodstream form assessed as mild induction of fungal death at 0.03 to 32 mg/L after 6 hrs by time-kill assay; format: functional, organism-based
# Candida metapsilosis [12] = experiment: Antifungal activity against Candida metapsilosis clinical isolate bloodstream form assessed as time required for 99.9% reduction in fungal growth at 4 mg/L by time-kill assay; format: functional
# Candida metapsilosis [13] = experiment: Antifungal activity against Candida metapsilosis clinical isolate bloodstream form assessed as time required for 90% reduction in fungal growth at 4 mg/L by time-kill assay; format: functional
# Candida metapsilosis [14] = experiment: Antifungal activity against Candida metapsilosis clinical isolate bloodstream form assessed as time required for 99.9% reduction in fungal growth at 0.25 mg/L by time-kill assay; format: functional
# Candida orthopsilosis [15] = experiment: Antifungal activity against Candida orthopsilosis clinical isolate bloodstream form assessed as time required for 50% reduction in fungal growth at 4 mg/L by time-kill assay; format: functional
# Candida metapsilosis [16] = experiment: Antifungal activity against Candida metapsilosis clinical isolate bloodstream form assessed as time required for 50% reduction in fungal growth at 1 mg/L by time-kill assay; format: functional
# Candida orthopsilosis [17] = experiment: Antifungal activity against Candida orthopsilosis clinical isolate bloodstream form assessed as time required for 99.9% reduction in fungal growth at 1 mg/L by time-kill assay; format: functional
# Candida orthopsilosis [18] = experiment: Antifungal activity against Candida orthopsilosis clinical isolate bloodstream form assessed as mild induction of fungal death at 0.03 to 32 mg/L after 6 hrs by time-kill assay; format: functional, organism-based
# Candida parapsilosis [19] = experiment: Antifungal activity against Candida parapsilosis clinical isolate bloodstream form assessed as time required for 99% reduction in fungal growth at 4 mg/L by time-kill assay; format: functional
# Candida orthopsilosis [20] = experiment: Antifungal activity against Candida orthopsilosis clinical isolate bloodstream form assessed as time required for 50% reduction in fungal growth at 0.25 mg/L by time-kill assay; format: functional
# Candida orthopsilosis [21] = experiment: Fungicidal activity against Candida orthopsilosis isolate CP-131 bloodstream form by CLSI method; format: functional; conditions: Lodderomyces orthopsilosis
# Candida orthopsilosis [22] = experiment: Antifungal activity against Candida orthopsilosis clinical isolate bloodstream form assessed as time required for 99.9% reduction in fungal growth at 16 mg/L by time-kill assay; format: functional
# Candida parapsilosis [23] = experiment: Antifungal activity against Candida parapsilosis clinical isolate bloodstream form assessed as time required for 99% reduction in fungal growth at 16 mg/L by time-kill assay; format: functional
# Candida metapsilosis [24] = experiment: Fungicidal activity against Candida metapsilosis isolate ATC193 bloodstream form by CLSI method; format: functional; conditions: Lodderomyces metapsilosis, isolate ATC-193
# Candida parapsilosis [25] = experiment: Antifungal activity against Candida parapsilosis clinical isolate bloodstream form assessed as time required for 99% reduction in fungal growth at 32 mg/L by time-kill assay; format: functional
# Candida metapsilosis [26] = experiment: Fungicidal activity against Candida metapsilosis isolate CP-132 bloodstream form by CLSI method; format: functional; conditions: Lodderomyces metapsilosis
# Candida metapsilosis [27] = experiment: Antifungal activity against Candida metapsilosis clinical isolate bloodstream form assessed as time required for 99% reduction in fungal growth at 0.25 mg/L by time-kill assay; format: functional
# Candida metapsilosis [28] = experiment: Antifungal activity against Candida metapsilosis clinical isolate bloodstream form assessed as time required for 99% reduction in fungal growth at 16 mg/L by time-kill assay; format: functional
# Candida metapsilosis [29] = experiment: Antifungal activity against Candida metapsilosis clinical isolate bloodstream form assessed as induction of fungal killing rate at 0.03 to 32 mg/L measured at 6 hrs by time-kill assay; format: functional, organism-based
# Candida orthopsilosis [30] = experiment: Antifungal activity against Candida orthopsilosis clinical isolate bloodstream form assessed as time required for 90% reduction in fungal growth at 4 mg/L by time-kill assay; format: functional
# Candida orthopsilosis [31] = experiment: Antifungal activity against Candida orthopsilosis clinical isolate bloodstream form assessed as time required for 99% reduction in fungal growth at 0.25 mg/L by time-kill assay; format: functional
# Candida metapsilosis [32] = experiment: Antifungal activity against Candida metapsilosis clinical isolate bloodstream form assessed as time required for 99% reduction in fungal growth at 32 mg/L by time-kill assay; format: functional
# Candida metapsilosis [33] = experiment: Antifungal activity against Candida metapsilosis clinical isolate bloodstream form assessed as time required for 50% reduction in fungal growth at 4 mg/L by time-kill assay; format: functional
# Candida parapsilosis [34] = experiment: Antifungal activity against Candida parapsilosis clinical isolate bloodstream form assessed as time required for 90% reduction in fungal growth at 4 mg/L by time-kill assay; format: functional
# Candida orthopsilosis [35] = experiment: Antifungal activity against Candida orthopsilosis clinical isolate bloodstream form assessed as time required for 99.9% reduction in fungal growth at 4 mg/L by time-kill assay; format: functional
# Candida metapsilosis [36] = experiment: Antifungal activity against Candida metapsilosis clinical isolate bloodstream form assessed as time required for 90% reduction in fungal growth at 16 mg/L by time-kill assay; format: functional
# Candida parapsilosis [37] = experiment: Antifungal activity against Candida parapsilosis clinical isolate bloodstream form assessed as time required for 50% reduction in fungal growth at 4 mg/L by time-kill assay; format: functional
# Candida parapsilosis [38] = experiment: Antifungal activity against Candida parapsilosis clinical isolate bloodstream form assessed as time required for 90% reduction in fungal growth at 0.25 mg/L by time-kill assay; format: functional
# Candida parapsilosis [39] = experiment: Antifungal activity against Candida parapsilosis clinical isolate bloodstream form assessed as time required for 90% reduction in fungal growth at 32 mg/L by time-kill assay; format: functional
# Candida metapsilosis [40] = experiment: Antifungal activity against Candida metapsilosis clinical isolate bloodstream form assessed as time required for 90% reduction in fungal growth at 0.25 mg/L by time-kill assay; format: functional
# Candida orthopsilosis [41] = experiment: Fungicidal activity against Candida orthopsilosis isolate CP-151 bloodstream form by CLSI method; format: functional; conditions: Lodderomyces orthopsilosis
# Candida parapsilosis [42] = experiment: Antifungal activity against Candida parapsilosis clinical isolate bloodstream form assessed as time required for 99.9% reduction in fungal growth at 16 mg/L by time-kill assay; format: functional
# Candida parapsilosis [43] = experiment: Fungicidal activity against Candida parapsilosis isolate CP-300 bloodstream form by CLSI method; format: functional; conditions: Lodderomyces parapsilosis
structure (smiles),measurement,setting,value
CC[C@H](C)C[C@H](C)CCCCCCCCC(=O)N[C@H]1C[C@@H](O)[C@@H](NCCN)NC(=O)[C@@H]2[C@@H](O)CCN2C(=O)[C@H]([C@H](O)CCN)NC(=O)[C@H]([C@H](O)[C@@H](O)c2ccc(O)cc2)NC(=O)[C@@H]2C[C@@H](O)CN2C(=O)[C@H]([C@@H](C)O)NC1=O [CASPOFUNGIN],Time,Candida metapsilosis [1],>48 h
same,Time,Candida orthopsilosis [2],>48 h
same,Time,Candida orthopsilosis [3],12.82 h
same,Time,Candida orthopsilosis [4],7.45 h
same,Time,Candida orthopsilosis [5],10.53 h
same,Activity,Candida parapsilosis [6],inactive
same,Time,Candida parapsilosis [7],2.59 h
same,Time,Candida metapsilosis [8],1.99 h
same,Time,Candida metapsilosis [9],>48 h
same,Time,Candida metapsilosis [10],25.82 h
same,Activity,Candida metapsilosis [11],Active
same,Time,Candida metapsilosis [12],>48 h
same,Time,Candida metapsilosis [13],25.58 h
same,Time,Candida metapsilosis [14],>48 h
same,Time,Candida orthopsilosis [15],3.42 h
same,Time,Candida metapsilosis [16],22.3 h
same,Time,Candida orthopsilosis [17],>48 h
same,Activity,Candida orthopsilosis [18],Active
same,Time,Candida parapsilosis [19],>48 h
same,Time,Candida orthopsilosis [20],17.5 h
same,MIC,Candida orthopsilosis [21],2 µg/mL
same,Time,Candida orthopsilosis [22],38.46 h
same,Time,Candida parapsilosis [23],>48 h
same,MIC,Candida metapsilosis [24],0.12 µg/mL
same,Time,Candida parapsilosis [25],>48 h
same,MIC,Candida metapsilosis [26],0.25 µg/mL
same,Time,Candida metapsilosis [27],>48 h
same,Time,Candida metapsilosis [28],17.21 h
same,Activity,Candida metapsilosis [29],inactive
same,Time,Candida orthopsilosis [30],11.35 h
same,Time,Candida orthopsilosis [31],>48 h
same,Time,Candida metapsilosis [32],13.2 h
same,Time,Candida metapsilosis [33],7.7 h
same,Time,Candida parapsilosis [34],25.58 h
same,Time,Candida orthopsilosis [35],34.05 h
same,Time,Candida metapsilosis [36],8.61 h
same,Time,Candida parapsilosis [37],7.7 h
same,Time,Candida parapsilosis [38],>48 h
same,Time,Candida parapsilosis [39],6.6 h
same,Time,Candida metapsilosis [40],>48 h
same,MIC,Candida orthopsilosis [41],0.5 µg/mL
same,Time,Candida parapsilosis [42],>48 h
same,MIC,Candida parapsilosis [43],2 µg/mL

# Source: ChEMBL document CHEMBL1255421, “In vitro fungicidal activities of echinocandins against Candida metapsilosis, C. orthopsilosis, and C. parapsilosis evaluated by time-kill studies” (2010)
